Measurements published in PMC7557599, “Cyclic Peptide-Gadolinium Nanoparticles for Enhanced Intracellular Delivery” (Pharmaceutics, 2020).

Tested on: CCRF-CEM cells
Assay: Time-dependent antiproliferative activity assay (MTS)
Type: cell-based, human
Conditions: drug 5 µM, [(WR)5C]-GdNPs 50 µM, 72 h incubation, MTS 490 nm, triplicate (n = 3)
Experimental: Antiproliferative activities of several anticancer drugs, including epirubicin, cisplatin, gemcitabine, etoposide, carboplatin and camptothecin, were evaluated in the presence and absence of [(WR)5C]-GdNPs in CCRF-CEM cells. Different time periods, including 24, 48 and 72 h, were selected. The CellTiter 96 aqueous one solution cell proliferation assay kit (Promega, Madison, WI, USA) was used for the assay. The CCRF-CEM cells (5 × 10^4) were seeded in 100 µL of the media. The cells then placed in each well of the 96-well culture plate. The cells were incubated with drugs alone and [(WR)5C]-GdNPs-loaded drugs at a similar condition in triplicates. To confirm the results, DMSO (1% in water) was used as a control. To entrap the drug, the physical mixing method was used. A calculated volume of the drug solution was mixed with the desired volume of an aqueous solution of [(WR)5C]-GdNPs physically to obtain a final concentration of the drug (5 μM) and the [(WR)5C]-GdNPs (50 μM). The mixture was vortexed until the solution became homogeneous and clear. The mixture was incubated for 30 min at room temperature before adding to the cells to obtain optimized performance. The incubation of cells with their treatments was carried out at 37 °C for 24–72 h. The cell viability assay was performed by adding 20 μL of CellTiter 96 aqueous solution. The cells were incubated for another hour with the MTS reagent. The formazan absorbance was measured at 490 nm by a microplate reader. The percentage of cell survival was calculated as previously reported.
Several anticancer drugs such as epirubicin, cisplatin, gemcitabine, etoposide, carboplatin and camptothecin were evaluated for their antiproliferative activities at different time periods, including 24, 48 and 72 h. […] The improved antiproliferative activity of cisplatin and carboplatin could be due to the chelating of the thiol group of cysteine with these anticancer agents or binding of metals to peptides as GdNPs. […]

Question: How did the “enhancement of antiproliferative potency in the presence of [(WR)5C]-GdNPs” value (“enhancement of antiproliferative potency” for short) turn out when `CC[C@@]1(O)C(=O)OCc2c1cc1n(c2=O)Cc2cc3ccccc3nc2-1` [camptothecin] was run?
Answer: 8%

Question: With `COc1cc([C@@H]2c3cc4c(cc3[C@@H](O[C@@H]3O[C@@H]5CO[C@@H](C)O[C@H]5[C@H](O)[C@H]3O)[C@H]3COC(=O)[C@H]23)OCO4)cc(OC)c1O` [etoposide] as the compound, how does the “enhancement of antiproliferative potency” value read?
Answer: 2%

Question: Which “enhancement of antiproliferative potency” value does the source give for `COc1cccc2c1C(=O)c1c(O)c3c(c(O)c1C2=O)C[C@@](O)(C(=O)CO)C[C@@H]3O[C@H]1C[C@H](N)[C@@H](O)[C@H](C)O1` [epirubicin] here?
Answer: 6%
